Experimental data as given in publication PMC10783034, “Pharmacokinetic and pharmacodynamic evaluation of the atypical tetracyclines chelocardin and amidochelocardin in murine infection models” (Microbiology Spectrum, 2023).
Values joined by “and” are separate entries in the source; they are usually repeats but may differ in a detail not shown here. Equal entries are not always repeated.

Legend:
[1] = Pharmacokinetic studies in uninfected CD-1 mice (plasma and urine levels); format: in vivo; details: for epimerization in plasma and urine in vivo / urine concentrations at time points > 24 hours / plasma levels at 30 mg/kg IV compared with 15 mg/kg IV / urine levels at 30 mg/kg IV compared with 15 mg/kg IV: mice; for F (bioavailability) / AUC0-t / C0 / Cl/F_obs / MRT / Vz/F_obs / t1/2 (plasma half-life) / Tmax / Cmax: CD-1 mice
Procedure: CHD and CDCHD were administered in single PK studies at the doses of 15 mg/kg and 30 mg/kg IV, at 15 mg/kg SC, and 15 mg/kg PO. Up to 25 µL of blood was collected from the lateral tail vein (n = 3 per time point) and time points t = 0.5, 1, 2, 4, and 8 hours. For 15 mg/kg IV- and PO-administered compounds, blood was also collected at time points t = 24 and 48 hours. For IV- and SC-administered compounds, blood was also collected at t = 0.25 hours. At t = 24 hours (15 mg/kg SC, 30 mg/kg IV) or 72 hours (15 mg/kg IV and PO), animals were euthanized to collect blood. At every blood collection, time point spontaneous urine was collected as well. Whole blood was collected into Eppendorf tubes coated with 0.5 M EDTA and immediately spun down at 15,870× g for 10 min at 4°C. Then, plasma was transferred into a new Eppendorf tube and stored at −80°C until analysis.
First, a calibration curve was prepared by spiking different concentrations of CHD and CDCHD into mouse plasma or mouse urine (matrix for mouse PK or PD samples) from CD-1 mice. Caffeine was used as an internal standard. In addition, quality control samples (QCs) were prepared for CHD and CDCHD in plasma and urine. The following extraction procedures were used: 7.5 µL of a plasma or urine sample (calibration samples, QCs, PK or PD samples) was extracted with 37.5 µL of a mixture of methanol/acetonitrile (2:1) containing 12.5 ng/mL of glipizide as an internal standard for 5 min at 2,000 rpm on an Eppendorf MixMate® vortex mixer. Then samples were spun down at 15,870× g for 10 min. Supernatants were transferred to standard HPLC glass vials.
Samples were analyzed using an Agilent 1290 HPLC system coupled to an AB Sciex QTrap 6500 mass spectrometer. LC conditions were as follows: column: Agilent Zorbax Eclipse Plus C18, 50 × 2.1 mm, 1.8 µm; temperature: 30°C; injection volume: 5 µL per sample; flow rate: 700 µL/min. Samples were run under the following conditions. Solvents for acidic conditions: A: 100% water +0.1% formic acid; solvent B: 100% acetonitrile +0.1% formic acid. The gradient for CDCHD was as follows: 99% A at 0 min, 99% A until 1 min, 99%–50% A from 1 to 2.4 min, 50%–35% A from 2.4 to 2.7 min, 35–0% A from 2.7 until 4.5 min, 0% A until 6 min, 0-99% from 6 to 6.2 min, 99% A until 8.0 min. The gradient for CHD was as follows: 99%–90% A from 0 to 1 min, 90%–55% A from 1 to 2.3 min, 50%–40% A from 2.3 to 2.5 min, 40%–0% A from 2.5 to 4.5 min, 0% A until 6 min, 0%–99% A from 6 to 6.2 min, 99% A until 8.0 min. Mass transitions are depicted in Table S3. Peaks of PK and PD samples were quantified using the calibration curve. The accuracy of the calibration curve was determined using QCs independently prepared on different days. PK parameters were determined using a non-compartmental analysis with PKSolver ([55]).

K. pneumoniae strains = test system: K. pneumoniae strains; parameters: method as in PMID 32962088; details: selection of different K. pneumoniae strains; cited from earlier work
[2] = plasma, 15 mg/kg IV, for CHD active CHD only

Structure (SMILES) | epimerization in plasma and urine in vivo ([1]; 15 mg/kg IV) | urine concentrations at time points > 24 hours ([1]; 15 mg/kg IV) | F (bioavailability) ([1]; 15 mg/kg PO, 15 mg/kg) | F (bioavailability) ([1]; 15 mg/kg SC, 15 mg/kg) | AUC0-t ([1]; plasma, 15 mg/kg IV) | C0 ([1]; plasma, 15 mg/kg IV) | Cl/F_obs ([1]; plasma, 15 mg/kg IV) [mL/min/kg] | MRT ([1]; plasma, 15 mg/kg IV) [h] | Vz/F_obs ([1]; plasma, 15 mg/kg IV) [L/kg] | C0 [1, 2] | t1/2 (plasma half-life) [1, 2] [h] | AUC0-t ([1]; plasma, 15 mg/kg PO) | Cl/F_obs ([1]; plasma, 15 mg/kg PO) [mL/min/kg] | MRT ([1]; plasma, 15 mg/kg PO) [h] | Tmax ([1]; plasma, 15 mg/kg PO) [h] | Vz/F_obs ([1]; plasma, 15 mg/kg PO) [L/kg] | AUC0-t ([1]; plasma, 15 mg/kg SC) | Cl/F_obs ([1]; plasma, 15 mg/kg SC) [mL/min/kg] | MRT ([1]; plasma, 15 mg/kg SC) [h] | Vz/F_obs ([1]; plasma, 15 mg/kg SC) [L/kg] | also measured
Cc1ccc2c(C)c3c(c(O)c2c1O)C(=O)C1(O)C(=O)C(C(N)=O)=C(O)C(N)C1C3 (stereo not shown) [CDCHD, 2-carboxamido-2-deacetyl-chelocardin] | This was not the case for CDCHD | found at high concentrations | 6% and 5.9% | 24% and 23.5% | 13,229.0 ± 1,147.2 ng/mL*h | around 1.3 µg/mL | 16.0 ± 1.4 | 33.4 ± 8.0 | 33.4 ± 6.1 | 1,336.4 ± 523.5 ng/mL | 24.3 ± 5.2 | 780.9 ± 187.8 ng·h/mL | 294.3 ± 99.2 | 27.9 ± 7.1 | 7.3 ± 1.6 | 394.5 ± 122.6 | 3,109.3 ± 592.0 ng/mL*h | 34.5 | 57.3 | 119.2 | plasma concentrations of CDCHD relative to the active CHD ([1]; 15 mg/kg IV, time points > 24 hours, higher than active CHD): 10 fold; Cmax ([1]; plasma, 15 mg/kg SC, 15 mg/kg): 171 ng/mL and 171.7 ± 17.7 ng/mL; plasma levels at 30 mg/kg IV compared with 15 mg/kg IV [1]: increased plasma levels (by a factor of more than two); urine levels at 30 mg/kg IV compared with 15 mg/kg IV [1]: in a similar range; MIC (K. pneumoniae strains): ~ 4 µg/mL
CC(=O)C1=C(O)[C@H](N)[C@@H]2Cc3c(c(O)c4c(O)c(C)ccc4c3C)C(=O)[C@]2(O)C1=O [CHD, chelocardin] | epimerization was also observed for CHD in plasma and to a lower extent in urine | already declined | 24% and 24.2% | 90% and 90.2% | 31,550.8 ± 2,722.6 ng/mL*h | more than 4 µg/mL | 7.9 ± 0.6 | 8.5 ± 0.2 | 5.6 ± 0.5 | 4,234.3 ± 1,737.1 ng/mL | 8.2 ± 0.3 | 7,636.3 ± 840.7 ng/mL*h | 31.0 ± 4.3 | 19.1 ± 4.1 | 3.3 ± 1.2 | 55.5 ± 14.5 | 28,457.0 ± 4,506.2 ng/mL*h | 8.1 ± 1.1 | 9.7 ± 1.8 | 4.8 ± 1.5 | Cmax of CHD relative to CDCHD ([1]; 15 mg/kg PO, higher than CDCHD): more than 15 times; plasma levels of CHD relative to CDCHD ([1]; 15 mg/kg SC, higher than CDCHD): around 10 fold; Cmax ([1]; plasma, 15 mg/kg PO): 460.5 ± 58.6 ng/mL; Cmax ([1]; plasma, 15 mg/kg SC): 2,109.3 ± 601.9 ng/mL; Tmax ([1]; plasma, 15 mg/kg SC): 4.0 ± 0.0 h; Cmax ([1]; plasma, 15 mg/kg SC (text)): around 2.1 µg/mL; plasma levels at 30 mg/kg IV compared with 15 mg/kg IV [1]: in a similar range as for the 15 mg/kg IV dose; urine levels at 30 mg/kg IV compared with 15 mg/kg IV [1]: increased urine levels; AUC of CHD relative to CDCHD ([1]; plasma, higher than CDCHD, stated in the 15 mg/kg SC paragraph): 3 times; MIC (K. pneumoniae strains): ~ 4 µg/mL
